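A five-concentration, 48-hour dose response in 96-well plates underlies each endpoint, interpolated linearly between surrounding concentrations. GI50 is the concentration that inhibits growth by half.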 Activity calls are given as the source filed them. Rule as the data show it: active = GI50 up to about 1.1 µM and inactive = higher.
Tests used:
Test in all cases: NCI anticancer screen, dose series, 48 h
BT-549 = system: BT-549
COLO 205 = system: COLO 205
DU-145 = system: DU-145
HCC 2998 = system: HCC 2998
HL-60 = system: HL-60
HOP-92 = system: HOP-92
K562 = system: K562
LOX IMVI = system: LOX IMVI
NCI-H460 = system: NCI-H460
NCI/ADR-RES = system: NCI/ADR-RES
OVCAR-5 = system: OVCAR-5
RPMI-8226 = system: RPMI-8226
SK-MEL-28 = system: SK-MEL-28
SW-620 = system: SW-620
TK-10 = system: TK-10
UACC-62 = system: UACC-62
UO-31 = system: UO-31
OVCAR-4 = system: OVCAR-4

Measured: GI50

O=C(NC(Nc1ccc(F)c(Cl)c1)(C(F)(F)F)C(F)(F)F)OCc1ccccc1
inactive: BT-549 14.7 µM | COLO 205 17.8 µM | DU-145 24.4 µM | HCC 2998 22.1 µM | HL-60 11.5 µM | HOP-92 23.2 µM | K562 10.8 µM | LOX IMVI 64.7 µM | NCI-H460 85.1 µM | NCI/ADR-RES 27.7 µM | OVCAR-5 > 100 µM | RPMI-8226 20.4 µM | SK-MEL-28 > 100 µM | SW-620 61.7 µM | TK-10 63.1 µM | UACC-62 17.7 µM | UO-31 19.8 µM

CC1OC(OC2C(OC(=O)[C@@H]3CC(C)(C)C[C@@H]4C5=CC[C@@H]6[C@@]7(C)C[C@H](O)[C@H](OC8OC(CO)C(O)C(O)C8O)[C@@](C)(CO)C7[C@H](O)C[C@@]6(C)[C@]5(C)C[C@@H](O)[C@H]43)OCC(O)C2O)C(O)C(O)C1O (some centres undefined)
inactive: BT-549 > 15 µM | COLO 205 6.28 µM | DU-145 > 15 µM | HCC 2998 8.69 µM | HL-60 > 15 µM | HOP-92 > 15 µM | K562 > 15 µM | LOX IMVI > 15 µM | NCI-H460 > 15 µM | NCI/ADR-RES > 15 µM | OVCAR-4 12.9 µM | OVCAR-5 7.96 µM | SW-620 > 15 µM | TK-10 > 15 µM | UACC-62 > 15 µM | UO-31 6.49 µM

CCCC(=O)OC(OC(=O)CCC)c1ccc([N+](=O)[O-])o1
inactive: BT-549 47.2 µM | COLO 205 23.3 µM | DU-145 36.7 µM | HCC 2998 15.9 µM | HL-60 26.3 µM | HOP-92 22.9 µM | K562 34 µM | LOX IMVI 21.7 µM | NCI-H460 > 100 µM | NCI/ADR-RES 39.2 µM | OVCAR-5 21.8 µM | RPMI-8226 22.6 µM | SK-MEL-28 20.4 µM | SW-620 20 µM | TK-10 19.4 µM | UACC-62 20.9 µM | UO-31 21.1 µM

CCCCCCCCCCCCc1ccsc1-c1ccc(-c2ccc(-c3sccc3CCCCCCCCCCCC)s2)s1
inactive: BT-549 > 100 µM | COLO 205 > 100 µM | DU-145 > 100 µM | HCC 2998 > 100 µM | HL-60 > 100 µM | HOP-92 > 100 µM | K562 > 100 µM | LOX IMVI > 100 µM | NCI-H460 > 100 µM | NCI/ADR-RES > 100 µM | OVCAR-5 > 100 µM | RPMI-8226 > 100 µM | SK-MEL-28 > 100 µM | SW-620 > 100 µM | TK-10 > 100 µM | UACC-62 > 100 µM | UO-31 > 100 µM

CCOC(=O)/C=C/C(Br)=C(Br)/C=C/C(=O)OCC
inactive: BT-549 5.62 µM | COLO 205 16.4 µM | DU-145 13.1 µM | HCC 2998 20.6 µM | HL-60 5.85 µM | HOP-92 19.1 µM | K562 2.65 µM | LOX IMVI 2.52 µM | NCI-H460 33.9 µM | NCI/ADR-RES 11.4 µM | OVCAR-4 17.7 µM | OVCAR-5 18.6 µM | RPMI-8226 2.59 µM | SK-MEL-28 12.4 µM | TK-10 14.2 µM | UACC-62 15.4 µM | UO-31 10.7 µM

CC(=O)Nc1ccc(S(=O)(=O)/N=c2/sc(S(N)(=O)=O)nn2C)cc1
inactive: BT-549 > 100 µM | COLO 205 > 100 µM | DU-145 > 100 µM | HCC 2998 > 100 µM | HL-60 > 100 µM | HOP-92 > 100 µM | NCI-H460 > 100 µM | NCI/ADR-RES > 100 µM | OVCAR-4 > 100 µM | OVCAR-5 > 100 µM | RPMI-8226 > 100 µM | SK-MEL-28 > 100 µM | SW-620 > 100 µM | TK-10 > 100 µM | UACC-62 > 100 µM | UO-31 > 100 µM

COC(=O)c1c(O)ccc2c1c1c(n2CCc2ccccc2)C(=O)c2ccccc2C1=O
inactive: BT-549 15.4 µM | COLO 205 1.83 µM | DU-145 14.4 µM | HCC 2998 2.48 µM | HL-60 17.8 µM | HOP-92 16.3 µM | K562 8.38 µM | LOX IMVI 15.7 µM | NCI-H460 4.11 µM | NCI/ADR-RES 6.9 µM | OVCAR-4 6.79 µM | OVCAR-5 20.2 µM | RPMI-8226 7.03 µM | SK-MEL-28 16 µM | SW-620 13.2 µM | TK-10 11.6 µM | UO-31 10.8 µM

N#Cc1nc(/C=C/c2nc(C#N)c(N)o2)oc1N
inactive: BT-549 > 10 µM | COLO 205 > 10 µM | DU-145 > 10 µM | HCC 2998 > 10 µM | HL-60 > 10 µM | HOP-92 > 10 µM | K562 > 10 µM | LOX IMVI > 10 µM | NCI-H460 > 10 µM | NCI/ADR-RES > 10 µM | OVCAR-4 > 10 µM | RPMI-8226 > 10 µM | SK-MEL-28 > 10 µM | SW-620 > 10 µM | TK-10 > 10 µM | UACC-62 > 10 µM | UO-31 > 10 µM
